Measured values: ChEMBL document CHEMBL3885881, “DrugMatrix”

Species: Rattus norvegicus
Assay: DrugMatrix - Regimen: Daily Repeat
Format: toxicity, organism-based, Sprague-Dawley
Set-up: regimen Daily Repeat, gender Male, age 6-8 weeks
Conditions: in vivo, po, route oral GAVAGE, […]; for ABSOLUTE BASOPHIL / BASOPHIL / NUCLEATED RED BLOOD CELLS / ABSOLUTE EOSINOPHIL / EOSINOPHIL / HEMOGLOBIN / PLATELET COUNT / ABSOLUTE LYMPHOCYTE / ABSOLUTE MONOCYTE / ABSOLUTE SEGMENTED NEUTROPHIL / ERYTHROCYTE COUNT / HEMATOCRIT / LYMPHOCYTE / MEAN CORPUSCULAR HEMOGLOBIN CONCENTRATION / MEAN CORPUSCULAR VOLUME: tissue Blood; for ASPARTATE AMINOTRANSFERASE / ALANINE AMINOTRANSFERASE / ALBUMIN / ALKALINE PHOSPHATASE / BLOOD UREA NITROGEN / CARBON DIOXIDE / CREATINE PHOSPHOKINASE / CREATININE / LACTATE DEHYDROGENASE / TOTAL BILIRUBIN / TOTAL PROTEIN / URIC ACID: tissue Plasma
[1] = 0 mg/kg, 72 h, dose level Control, time 3 day
[2] = 0 mg/kg, 120 h, dose level Control, time 5 day
[3] = 0 mg/kg, dose level Control, time 7 day
[4] = 43 mg/kg, 72 h, dose level Low, time 3 day
[5] = 43 mg/kg, 120 h, dose level Low, time 5 day
[6] = 100 mg/kg, 72 h, dose level M1, time 3 day
[7] = 100 mg/kg, dose level M1, time 7 day
[8] = 215 mg/kg, 72 h, dose level M2, time 3 day

CC(C)OC(=O)C(C)(C)Oc1ccc(C(=O)c2ccc(Cl)cc2)cc1 [FENOFIBRATE]
ABSOLUTE BASOPHIL [1]: 0 CELLS/uL
BASOPHIL [1]: 0%
NUCLEATED RED BLOOD CELLS [1]: 0 /100WBC
ABSOLUTE BASOPHIL [2]: 0 CELLS/uL
ABSOLUTE EOSINOPHIL [2]: 0 CELLS/uL
BASOPHIL [2]: 0%
EOSINOPHIL [2]: 0%
HEMOGLOBIN [2]: 13.5 G/DL
PLATELET COUNT [2]: 807.17 x10E3/uL
ASPARTATE AMINOTRANSFERASE [2]: 83 u/L
ABSOLUTE BASOPHIL [3]: 0 CELLS/uL
ABSOLUTE EOSINOPHIL [3]: 19 CELLS/uL
ABSOLUTE LYMPHOCYTE [3]: 7803.5 CELLS/uL
ABSOLUTE MONOCYTE [3]: 117.83 CELLS/uL
ABSOLUTE SEGMENTED NEUTROPHIL [3]: 1093 CELLS/uL
BASOPHIL [3]: 0%
EOSINOPHIL [3]: 0.17%
ERYTHROCYTE COUNT [3]: 5.84 x10E6/uL
HEMATOCRIT [3]: 35.75%
HEMOGLOBIN [3]: 13.87 G/DL
LYMPHOCYTE [3]: 87.17%
MEAN CORPUSCULAR HEMOGLOBIN CONCENTRATION [3]: 38.8 G/DL
MEAN CORPUSCULAR VOLUME [3]: 61.25 fL
NUCLEATED RED BLOOD CELLS [3]: 0 /100WBC
PLATELET COUNT [3]: 1098.67 x10E3/uL
ALANINE AMINOTRANSFERASE [3]: 66 u/L
ALBUMIN [3]: 4.3 G/DL
ALKALINE PHOSPHATASE [3]: 291.83 u/L
ASPARTATE AMINOTRANSFERASE [3]: 80.5 u/L
BLOOD UREA NITROGEN [3]: 15.67 mg/dL
CARBON DIOXIDE [3]: 30 mmol/L
CREATINE PHOSPHOKINASE [3]: 363.33 u/L
CREATININE [3]: 0.25 mg/dL
LACTATE DEHYDROGENASE [3]: 219.67 u/L
TOTAL BILIRUBIN [3]: 0.12 mg/dL
TOTAL PROTEIN [3]: 6.33 G/DL
URIC ACID [3]: 0.75 mg/dL
ABSOLUTE BASOPHIL [4]: 0 CELLS/uL
ABSOLUTE EOSINOPHIL [4]: 76 CELLS/uL
ABSOLUTE LYMPHOCYTE [4]: 10300 CELLS/uL
ABSOLUTE MONOCYTE [4]: 0 CELLS/uL
ABSOLUTE SEGMENTED NEUTROPHIL [4]: 324 CELLS/uL
BASOPHIL [4]: 0%
EOSINOPHIL [4]: 0.67%
ERYTHROCYTE COUNT [4]: 5.15 x10E6/uL
HEMATOCRIT [4]: 32.83%
HEMOGLOBIN [4]: 12.83 G/DL
LYMPHOCYTE [4]: 96.33%
MEAN CORPUSCULAR HEMOGLOBIN CONCENTRATION [4]: 39.07 G/DL
MEAN CORPUSCULAR VOLUME [4]: 63.77 fL
NUCLEATED RED BLOOD CELLS [4]: 0.33 /100WBC
PLATELET COUNT [4]: 922 x10E3/uL
ALANINE AMINOTRANSFERASE [4]: 71 u/L
ALBUMIN [4]: 3.7 G/DL
ALKALINE PHOSPHATASE [4]: 389.33 u/L
ASPARTATE AMINOTRANSFERASE [4]: 87.67 u/L
BLOOD UREA NITROGEN [4]: 7 mg/dL
CARBON DIOXIDE [4]: 22 mmol/L
CREATINE PHOSPHOKINASE [4]: 129.33 u/L
CREATININE [4]: 0.13 mg/dL
LACTATE DEHYDROGENASE [4]: 74.33 u/L
TOTAL BILIRUBIN [4]: 0.1 mg/dL
TOTAL PROTEIN [4]: 4.67 G/DL
URIC ACID [4]: 0.63 mg/dL
ABSOLUTE BASOPHIL [5]: 0 CELLS/uL
ABSOLUTE EOSINOPHIL [5]: 51.33 CELLS/uL
ABSOLUTE LYMPHOCYTE [5]: 9774.33 CELLS/uL
ABSOLUTE MONOCYTE [5]: 51.33 CELLS/uL
ABSOLUTE SEGMENTED NEUTROPHIL [5]: 823 CELLS/uL
BASOPHIL [5]: 0%
EOSINOPHIL [5]: 0.67%
ERYTHROCYTE COUNT [5]: 4.75 x10E6/uL
HEMATOCRIT [5]: 30.63%
HEMOGLOBIN [5]: 12.1 G/DL
LYMPHOCYTE [5]: 91.33%
MEAN CORPUSCULAR HEMOGLOBIN CONCENTRATION [5]: 39.5 G/DL
MEAN CORPUSCULAR VOLUME [5]: 64.5 fL
NUCLEATED RED BLOOD CELLS [5]: 0 /100WBC
PLATELET COUNT [5]: 848.67 x10E3/uL
ALANINE AMINOTRANSFERASE [5]: 54.67 u/L
ALBUMIN [5]: 4.57 G/DL
ALKALINE PHOSPHATASE [5]: 365.33 u/L
ASPARTATE AMINOTRANSFERASE [5]: 98.33 u/L
BLOOD UREA NITROGEN [5]: 12.33 mg/dL
CARBON DIOXIDE [5]: 27 mmol/L
CREATINE PHOSPHOKINASE [5]: 885.67 u/L
CREATININE [5]: 0.27 mg/dL
LACTATE DEHYDROGENASE [5]: 151.33 u/L
TOTAL BILIRUBIN [5]: 0.13 mg/dL
TOTAL PROTEIN [5]: 5.73 G/DL
URIC ACID [5]: 0.97 mg/dL
ABSOLUTE BASOPHIL [6]: 0 CELLS/uL
ABSOLUTE EOSINOPHIL [6]: 17.33 CELLS/uL
ABSOLUTE LYMPHOCYTE [6]: 10964.5 CELLS/uL
ABSOLUTE MONOCYTE [6]: 176.17 CELLS/uL
ABSOLUTE SEGMENTED NEUTROPHIL [6]: 858.67 CELLS/uL
BASOPHIL [6]: 0%
EOSINOPHIL [6]: 0.17%
ERYTHROCYTE COUNT [6]: 5.66 x10E6/uL
HEMATOCRIT [6]: 35.15%
HEMOGLOBIN [6]: 14.03 G/DL
LYMPHOCYTE [6]: 91.17%
MEAN CORPUSCULAR HEMOGLOBIN CONCENTRATION [6]: 39.97 G/DL
MEAN CORPUSCULAR VOLUME [6]: 62.08 fL
NUCLEATED RED BLOOD CELLS [6]: 0 /100WBC
ALANINE AMINOTRANSFERASE [6]: 54.33 u/L
ALBUMIN [6]: 4.53 G/DL
ALKALINE PHOSPHATASE [6]: 352 u/L
ASPARTATE AMINOTRANSFERASE [6]: 82 u/L
CARBON DIOXIDE [6]: 33 mmol/L
CREATINE PHOSPHOKINASE [6]: 171.5 u/L
CREATININE [6]: 0.19 mg/dL
LACTATE DEHYDROGENASE [6]: 147.33 u/L
TOTAL BILIRUBIN [6]: 0.17 mg/dL
TOTAL PROTEIN [6]: 5.83 G/DL
ABSOLUTE BASOPHIL [7]: 0 CELLS/uL
ABSOLUTE EOSINOPHIL [7]: 14.83 CELLS/uL
ABSOLUTE LYMPHOCYTE [7]: 8599.83 CELLS/uL
ABSOLUTE SEGMENTED NEUTROPHIL [7]: 668 CELLS/uL
BASOPHIL [7]: 0%
EOSINOPHIL [7]: 0.17%
ERYTHROCYTE COUNT [7]: 5.49 x10E6/uL
HEMATOCRIT [7]: 33.87%
HEMOGLOBIN [7]: 13.08 G/DL
LYMPHOCYTE [7]: 92.33%
MEAN CORPUSCULAR HEMOGLOBIN CONCENTRATION [7]: 38.63 G/DL
MEAN CORPUSCULAR VOLUME [7]: 61.8 fL
NUCLEATED RED BLOOD CELLS [7]: 0 /100WBC
PLATELET COUNT [7]: 1292.17 x10E3/uL
ALANINE AMINOTRANSFERASE [7]: 74.17 u/L
ALBUMIN [7]: 5.1 G/DL
ALKALINE PHOSPHATASE [7]: 331.67 u/L
ASPARTATE AMINOTRANSFERASE [7]: 84.67 u/L
BLOOD UREA NITROGEN [7]: 15.33 mg/dL
CARBON DIOXIDE [7]: 31.67 mmol/L
CREATINE PHOSPHOKINASE [7]: 252 u/L
CREATININE [7]: 0.24 mg/dL
LACTATE DEHYDROGENASE [7]: 121.33 u/L
TOTAL BILIRUBIN [7]: 0.1 mg/dL
TOTAL PROTEIN [7]: 6.25 G/DL
ABSOLUTE BASOPHIL [8]: 0 CELLS/uL
ABSOLUTE EOSINOPHIL [8]: 60.33 CELLS/uL
ABSOLUTE LYMPHOCYTE [8]: 18749.67 CELLS/uL
ABSOLUTE MONOCYTE [8]: 284.33 CELLS/uL
ABSOLUTE SEGMENTED NEUTROPHIL [8]: 1839 CELLS/uL
BASOPHIL [8]: 0%
EOSINOPHIL [8]: 0.33%
ERYTHROCYTE COUNT [8]: 5.51 x10E6/uL
HEMATOCRIT [8]: 33.9%
